This note sets out measurements from ChEMBL document CHEMBL4359885, “Novel multi target-directed ligands targeting 5-HT4 receptors with in cellulo antioxidant properties as promising leads in Alzheimer's disease” (Eur J Med Chem, 2019).

pEC50, pIC50, pKi: −log10 of the molar value. Active and inactive are the calls of the source. The rule behind the calls is not given here.

Data set [1] in a line: Antioxidant activity assessed as DPPH radical scavenging activity measured after 120 mins. It is filed as functional. For orientation: Loss of DPPH colour is used to gauge radical scavenging.
Data set [2] relates to SH-SY5Y. In words: Antioxidant activity in human SH-SY5Y cells assessed as inhibition of t-BuOOH-induced intracellular oxidative stress by measuring ROS level at 100 uM preincubated for 24 hrs followed by t-BuOOH addition and measured after 30 mins by DCFH-DA dye-based fluorescence assay. It is filed as functional, cell-based.
A short description of data set [3]: Antioxidant activity assessed as […] radical scavenging activity preincubated for 30 mins followed by AAPH addition and measured every minute for 2 hrs by ORAC fluorescein assay relative to trolox. It is filed as functional.
The target of data set [4] is T1, 5-hydroxytryptamine receptor 4 (Homo sapiens, UniProt Q13639). Briefly: Displacement of [3H]-GR 113808 from recombinant human brain 5HT4 receptor at 10^-6 M measured after 60 mins by radio ligand binding assay relative to control. (In general: Loss of bound radioactivity is the signal in a displacement assay; it reports binding, not function.)
Data set [5] addresses T1, 5-hydroxytryptamine receptor 4. In words: Displacement of [3H]-GR 113808 from recombinant human brain 5HT4 receptor at 10^-8 M measured after 60 mins by radio ligand binding assay relative to control.
The next data set has as its target Acetylcholinesterase (Homo sapiens, UniProt P22303). Briefly: Inhibition of human erythrocytes AChE assessed as reduction in 5-thio-2-nitrobenzoate anion formation using acetylthiocholine iodide as substrate preincubated for 5 mins followed by substrate addition by Ellman's method.
Data set [6] has as its target T1, 5-hydroxytryptamine receptor 4. Briefly: Displacement of [3H]-GR 113808 from recombinant human brain 5HT4 receptor measured after 60 mins by radio ligand binding assay.
Data set [7] has the same target. Briefly: Binding affinity to recombinant human brain 5HT4 receptor by radio ligand binding assay.
Data set [8] concerns SH-SY5Y. In words: Cytotoxicity against human SH-SY5Y cells assessed as reduction in cell viability at 50 uM measured after 24 hrs by MTT assay relative to control. It is filed as cell-based.
Data set [9] relates to SH-SY5Y. Briefly: Antioxidant activity in human SH-SY5Y cells assessed as inhibition of t-BuOOH-induced intracellular oxidative stress by measuring ROS level at 10 uM preincubated for 24 hrs followed by t-BuOOH addition and measured after 30 mins by DCFH-DA dye-based fluorescence assay relative to control. It is filed as functional.
The target of data set [10] is T1, 5-hydroxytryptamine receptor 4. Briefly: Partial agonist activity at human HA-tagged 5HT4 receptor expressed in COS7 cells assessed as induction of cAMP production measured after 10 mins by HTRF assay. It is filed as functional, cell-based. In general terms: cAMP levels reflect the balance of adenylyl cyclase and phosphodiesterase activity.
Data set [11] shares this target. In words: Agonist activity at human HA-tagged 5HT4 receptor expressed in COS7 cells assessed as induction of cAMP production measured after 10 mins by HTRF assay relative to control. It is filed as functional, cell-based.
Data set [12] has as its system SH-SY5Y. Briefly: Cytotoxicity against human SH-SY5Y cells assessed as reduction in cell viability at 0.5 to 10 uM measured after 24 hrs by MTT assay. It is filed as cell-based.
Data set [13] relates to SH-SY5Y. Briefly: Cytotoxicity against human SH-SY5Y cells assessed as reduction in cell viability at 0.5 to 10 uM after 24 hrs by MTT assay relative to control. It is filed as cell-based.

T1 sequence (Q13639 whole entry): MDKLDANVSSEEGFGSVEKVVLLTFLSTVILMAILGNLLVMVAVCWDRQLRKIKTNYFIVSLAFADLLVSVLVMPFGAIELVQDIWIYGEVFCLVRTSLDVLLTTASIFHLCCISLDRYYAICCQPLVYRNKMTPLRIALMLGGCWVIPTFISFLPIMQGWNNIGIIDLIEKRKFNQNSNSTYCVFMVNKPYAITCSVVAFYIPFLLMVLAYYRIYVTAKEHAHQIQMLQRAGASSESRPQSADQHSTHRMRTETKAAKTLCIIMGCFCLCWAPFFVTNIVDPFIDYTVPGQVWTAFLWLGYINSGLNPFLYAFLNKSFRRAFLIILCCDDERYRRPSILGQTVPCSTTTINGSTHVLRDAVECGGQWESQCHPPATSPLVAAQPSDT
Chain of Acetylcholinesterase (P22303 whole entry): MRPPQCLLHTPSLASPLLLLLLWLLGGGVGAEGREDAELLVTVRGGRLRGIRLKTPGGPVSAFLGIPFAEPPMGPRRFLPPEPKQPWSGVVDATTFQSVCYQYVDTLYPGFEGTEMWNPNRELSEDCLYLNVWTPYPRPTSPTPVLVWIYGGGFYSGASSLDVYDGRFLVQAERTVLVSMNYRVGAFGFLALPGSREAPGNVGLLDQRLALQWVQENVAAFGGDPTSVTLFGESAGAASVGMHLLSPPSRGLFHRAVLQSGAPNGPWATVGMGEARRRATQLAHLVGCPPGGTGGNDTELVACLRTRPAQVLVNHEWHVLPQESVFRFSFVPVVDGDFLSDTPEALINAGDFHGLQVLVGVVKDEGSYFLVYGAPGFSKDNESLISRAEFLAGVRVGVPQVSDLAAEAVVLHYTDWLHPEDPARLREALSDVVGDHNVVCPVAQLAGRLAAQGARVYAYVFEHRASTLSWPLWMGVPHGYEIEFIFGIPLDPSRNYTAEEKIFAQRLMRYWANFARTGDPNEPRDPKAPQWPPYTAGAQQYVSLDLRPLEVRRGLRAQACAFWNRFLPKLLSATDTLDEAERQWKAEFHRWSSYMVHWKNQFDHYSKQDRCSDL

The pEC50 is the negative decadic logarithm of the EC50, by convention in mol/L. The term inhibition denotes how much of the control response was suppressed. `Cc1c(C)c2c(c(C)c1O)CCC(C)(C(=O)O)O2` (stereo not drawn) [TROLOX]: the negative-log EC50 (pEC50) in data set [1] is 4.64. The inhibition result in the data set with SH-SY5Y [2] was “Active”.

With `O=c1c(O)c(-c2ccc(O)c(O)c2)oc2cc(O)cc(O)c12` [QUERCETIN], the negative-log EC50 (pEC50) in data set [1] is 5.03. Moreover, in data set [3], the fold change (FC) worked out at 6.5.

Regarding `COc1ccc(CN2CCC(CCC(=O)c3cc(Cl)c(N)cc3OC)CC2)cc1OCc1ccccc1`, the negative logarithm of the EC50 (pEC50) in [1] is < 3.60. The fold change (FC) in [3] was < 0.2. Also, the figures for the inhibition in data set [4] and in [5] were 88% and 7%, respectively.

Broadly, the pIC50 is the IC50 on a negative log10 scale, so that one unit is a factor of ten. For the molecule `COc1cc(CN2CCC(CCC(=O)c3cc(Cl)c(N)cc3OC)CC2)ccc1O`, the pEC50 in data set [1] was 3.74. Moreover, the fold change (FC) in data set [3] is 3.88. For the same molecule, the inhibition in data set [4] is 95%; in data set [5], 7%. Also, the pIC50 at Acetylcholinesterase was 6.27.

The pKi is the Ki on a negative log10 scale, so that one unit is a factor of ten. As a reminder, the Emax is the maximal effect, on the per cent scale that the assay sets. Regarding `COc1ccc(CN2CCC(CCC(=O)c3cc(Cl)c(N)cc3OC)CC2)cc1O`, the pEC50 was 4.07 in [1] and 8.85 in [10]. Moreover, in [6], the negative logarithm of the IC50 (pIC50) was 7.84. The fold change (FC) in data set [3] amounted to 3.41. Further, the pKi in data set [7] was 7.90. Besides, the Activity was 40% in the data set with SH-SY5Y [8] and “Non-Toxic” in the data set on SH-SY5Y [12]. For the same molecule, in the data set with SH-SY5Y [9], the inhibition at 10 µM worked out at 50%. Further, the results for the inhibition in data set [4] and in data set [5] were 100% and 64%, respectively. For the same molecule, the Emax in data set [11] came to 57%.

As to `COc1cc(CN2CCC(CCC(=O)c3cc(Cl)c(N)cc3OC)CC2)ccc1OCc1ccccc1`, in [1], the pEC50 was < 3.60. In addition, the fold change (FC) in data set [3] is < 0.2. The inhibition worked out at 97% in [4] and 0% in data set [5].

For the molecule `COc1cc(N)c(Cl)cc1C(=O)CCC1CCN(Cc2ccc(O)c(O)c2)CC1`, the values for the pEC50 in data set [1] and in data set [10] were 4.71 and 8.55, respectively. Also, the pIC50 in data set [6] is 8.12; on Acetylcholinesterase it was 6.86. Besides, the fold change (FC) in [3] was 3.4. For the same molecule, the negative logarithm of the Ki (pKi) in data set [7] is 8.23. The Activity in the data set with SH-SY5Y [8] is listed as 37%; in the data set on SH-SY5Y [12], “Non-Toxic”. For the same molecule, the inhibition at 10 µM in the data set on SH-SY5Y [9] amounted to 50%. The inhibition in data set [4] came out at 100%; in data set [5] it was 76%. Further, the maximal response (Emax) in data set [11] came to 72%.

Consider `COc1cc(N)c(Cl)cc1C(=O)CCC1CCN(Cc2ccc(OCc3ccccc3)c(OCc3ccccc3)c2)CC1`, for which, in data set [1], the negative-log EC50 (pEC50) was < 3.60. In data set [3], the fold change (FC) is < 0.2. Moreover, the inhibition in data set [4] came out at 89%; in data set [5] it was 3%.

In the case of `COc1cc(N)c(Cl)cc1C(=O)CCC1CCN(CCNC(=O)CCCC[C@@H]2CCSS2)CC1`, the negative logarithm of the EC50 (pEC50) in data set [1] is < 3.60. The fold change (FC) in data set [3] turned out to be 0.76. Further, the values for the Activity with SH-SY5Y [8] and in the data set on SH-SY5Y [12] were 48% and “Non-Toxic”, respectively. In addition, the inhibition result with SH-SY5Y [9] is “inactive”. In addition, the inhibition in data set [4] is 99%; in [5] it was 26%.

Regarding `NCCc1c[nH]c2ccc(O)cc12`, the inhibition stood at 65% in [4] and 0% in data set [5].

Take `COc1cc(N)c(Cl)cc1C(=O)CCC1CCN(Cc2ccc3c(c2)OCO3)CC1`: in data set [1], the negative logarithm of the EC50 (pEC50) is < 3.60. For the same molecule, the fold change (FC) in data set [3] is < 0.2. Further, the inhibition in [4] amounted to 100%; in data set [5] it was 22%.

Regarding `COc1cc(/C=C/C(=O)NCCN2CCC(CCC(=O)c3cc(Cl)c(N)cc3OC)CC2)ccc1O`, the pEC50 in data set [1] was 4.34; in data set [10], 8.35. In data set [6], the pIC50 was 7.00. Moreover, in [3], the fold change (FC) stood at 1.47. Moreover, the negative logarithm of the Ki (pKi) in [7] is 7.00. In addition, the Activity with SH-SY5Y [8] is 68%; with SH-SY5Y [13], 12%. Besides, in the data set on SH-SY5Y [9], the inhibition at 10 µM was 50%. Further, the values for the inhibition in data set [4] and in data set [5] were 100% and 39%, respectively. Further, the maximal response (Emax) in [11] stood at 47%.
